For one test, the system named is paw of rats. The experiment in a line: Pharmacological test for anti-inflammatory properties (carrageenan rat paw swelling). The conditions noted are these: oral 1 hour before carrageenan (0.05 ml of 1%), swelling 4 hours after injection by plethysmography, dose not given. It counts as in vivo. As for the experimental part: 1. Pharmacological test for anti-inflammatory properties.
The compounds to be tested are given as freshly prepared solutions or suspensions by oral route 1 hour before injecting the paw of rats with carrageenan which is a known inflammatory agent.
The inflammatory agent (carrageenan) either in solution or suspension is then injected into the plantar tissue of the right hind paw of each rat, the left paw remaining untreated and serving as control. Each animal receives, for example, 0.05 ml of an aqueous solution containing 1% by weight of carrageenan and 0.9% of sodium chloride.
4 hours after the injection of the inflammatory agent, the importance of swelling is determined by plethysmography and is expressed as a percent of the volume of the control paw.
The anti-inflammatory effect expressed as a percentage of inhibition is obtained by comparison between rats treated with the anti-inflammatory compound and a control group of rats.
A general note: The carrageenan paw model is a standard test of acute inflammation.

A further test relates to rats. The experiment in a line: Pharmacological test for diuretic properties (urine volume). In kind it is in vivo. The following applies: 50 mg/kg gastric gavage, 25 ml/kg saline s.c., urine collected 4 hours, ml/kg of body weight. As for the experimental part: 2. Pharmacological tests for diuretic properties Lots of 3 rats weighting 250-300 g have been constituted at random, each of them being submitted to the same treatment. The compound to be tested was administered by .[.gastric gavage at a dose of 50 ml/kg as a solution or a.]. .Iadd.gastric gavage at a dose of 50 mg/kg as a solution or a .[…].suspension in water containing 0.45% of methylcellulose (which is an inert mucilaginous substance). Control animals received only distilled water as a placebo. At the same time, all the animals received 25 ml/kg of physiological saline by subcutaneous injection. The rats were then placed in metabolic cages, each cage containing 3 animals receiving the same treatment. The urines have been collected during 4 hours. […] The diuresis is expressed in ml/kg of body weight.

With `CCCCNC(=O)NS(=O)(=O)c1cnccc1NCc1ccco1` [JDL 485, 3-butylcarbamylsufonamido-4-methyl-furylaminopyridine], the “% inhibition of acute oedema” value with paw of rats turned out to be 15.2%. This molecule had a Diuresis in the test on rats of 51.3 mL/kg.

Consider `CCCCNC(=O)NS(=O)(=O)c1cnccc1Nc1ccc(Cl)c(C(F)(F)F)c1` [JDL 486, 3-butylcarbamylsulfonamido-4-(3'-trifluoromethyl-4'-chloro)-phenyl aminopyridine], for which the “% inhibition of acute oedema” value with paw of rats is recorded as 16.8%. The molecule further had a Diuresis in the test on rats of 3.6 mL/kg.

In the case of `CC(C)NC(=O)NS(=O)(=O)c1cnccc1Nc1ccc(Cl)c(C(F)(F)F)c1` [JDL 487, 3-isopropylcarbamylsulfonamido-4-(3'-trifluoromethyl-4'-chloro)-phenylaminopyridine], in the test on paw of rats, the “% inhibition of acute oedema” value was found to be 20.8%. This molecule also displayed a Diuresis with rats of 10.5 mL/kg.

Consider `CCNC(=O)NS(=O)(=O)c1cnccc1Nc1ccc(Cl)c(C(F)(F)F)c1` [JDL 488, 3-ethylcarbamylsulfonamido-4-(3'-trifluoromethyl-4'-chloro)-phenyl-aminopyridine], for which the “% inhibition of acute oedema” value with paw of rats turned out to be 24.8%. Also, in the test on rats, the Diuresis was 16.4 mL/kg.

Consider `CCCCNC(=O)NS(=O)(=O)c1cnccc1NC(C)C` [JDL 491, 3-butylcarbamylsulfonamido-4-isopropylaminopyridine], for which the “% inhibition of acute oedema” value in the test on paw of rats was determined as 88.0%. For the same molecule, the Diuresis in the test on rats is 25.1 mL/kg.

For `CNC(=O)NS(=O)(=O)c1cnccc1NCc1ccco1` [JDL 492, 3-methylcarbamylsulfonamido-4-methyl-furylaminopyridine], the “% inhibition of acute oedema” value in the test on paw of rats came out at 88.8%. In the test on rats, the Diuresis is 14.9 mL/kg.

As for `CNC(=O)NS(=O)(=O)c1cnccc1Nc1cccc(OC)c1` [JDL 493, 3-methylcarbamylsulfonamido-4-(3'-methoxy)-phenylaminopyridine], the “% inhibition of acute oedema” value with paw of rats was 59.2%. Also, in the test on rats, the Diuresis worked out at 50.7 mL/kg.

For the molecule `CNC(=O)NS(=O)(=O)c1cnccc1Nc1cccc(C)c1` [JDL 494, 3-methylcarbamylsulfonamido-4-(3'-methyl)-phenylaminopyridine], the “% inhibition of acute oedema” value in the test with paw of rats is given as 85.6%. In the test with rats, this molecule returned a Diuresis of 75.9 mL/kg.

Consider `CNC(=O)NS(=O)(=O)c1cnccc1Nc1cccc(F)c1` [JDL 495, 3-methylcarbamylsulfonamido-4-(3'-fluoro)-phenylaminopyridine], for which, in the test on paw of rats, the “% inhibition of acute oedema” value is listed as 66.2%. In the test on rats, this molecule returned a Diuresis of 76.3 mL/kg.

On to `CNC(=O)NS(=O)(=O)c1cnccc1Nc1cccc(Br)c1` [JDL 496, 3-methylcarbamylsulfonamido-4-(3'-bromo)-phenylaminopyridine], for which the “% inhibition of acute oedema” value in the test on paw of rats stood at 70.4%. In the test with rats, this molecule registered a Diuresis of 72.1 mL/kg.

Turning to `CNC(=O)NS(=O)(=O)c1cncc(C)c1Nc1cccc(Cl)c1` [JDL 501, 3-methylcarbamylsulfonamido-4-(3'-chloro)-phenylamino-5-methylpyridine], the “% inhibition of acute oedema” value in the test with paw of rats is 39.2%. The Diuresis in the test with rats was 35.9 mL/kg.

As to `Cc1cncc(S(=O)(=O)NC(=O)NC(C)C)c1Nc1cccc(Cl)c1` [JDL 503, 3-isopropylcarbamylsulfonamido-4-(3'-chloro)-phenylamino-5-methylpyridine], in the test on paw of rats, the “% inhibition of acute oedema” value amounted to 71.2%. This molecule also yielded a Diuresis with rats of 48.9 mL/kg.

`CNC(=O)NS(=O)(=O)c1cnccc1Nc1cccc([N+](=O)[O-])c1` [JDL 504, 3-methylcarbamylsulfonamido-4-(3'-nitro)-phenylaminopyridine]: the “% inhibition of acute oedema” value in the test on paw of rats was 43.0%. The Diuresis in the test with rats is 17.2 mL/kg.

With `CC(C)NC(=O)NS(=O)(=O)c1cnccc1Nc1cccc([N+](=O)[O-])c1` [JDL 505, 3-isopropylcarbamylsulfonamido-4-(3'-nitro)-phenylaminopyridine], the “% inhibition of acute oedema” value in the test with paw of rats is recorded as 68.0%. This molecule also displayed a Diuresis in the test with rats of 56.3 mL/kg.

On to `CCNC(=O)NS(=O)(=O)c1cnccc1Nc1cccc(CC)c1` [JDL 511, 3-ethylcarbamylsulfonamido-4-(3'-ethyl)-phenylaminopyridine], for which, in the test with paw of rats, the “% inhibition of acute oedema” value worked out at 72.0%. Besides, the Diuresis in the test on rats came out at 66.4 mL/kg.

Take `CCc1cccc(Nc2ccncc2S(=O)(=O)NC(=O)NC(C)C)c1` [JDL 512, 3-isopropylcarbamylsulfonamido-4-(3'-ethyl)-phenylaminopyridine]: the “% inhibition of acute oedema” value in the test on paw of rats turned out to be 78.7%. In addition, in the test on rats, the Diuresis worked out at 65.9 mL/kg.
